The record followed here is PubChem BioAssay (NCI).

Common to all, as to assay: inhibition of tumour cell growth, NCI panel, 48 h
Test [1] deals with HCC-2998 colon.
The subject of test [2] is HCT-116 colon.
Test [3] relates to OVCAR-8 ovarian.
For test [4], the system named is EKVX NSCLC.
Test [5] concerns U251 CNS.
Test [6] deals with SF-268 CNS.
Test [7] relates to A549 NSCLC.
The test system of test [8] is HT29 colon.
Test [9] concerns SR leukemia.
Test [10] concerns TK-10 renal.

Each structure is given as a SMILES string.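 How tested: cells in 96-well plates exposed to compound for 48 hours at five concentrations. Abbreviation: GI50, concentration required for 50% inhibition of growth. Definition used: TGI = concentration required for complete inhibition of growth.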

Regarding `Cc1[nH]c(=O)[nH]c(=O)c1/C=C/C(=O)NC(CO)CS(=O)Cc1ccccc1` (centres undefined), the TGI in test [1], in [2], in test [3], in [4], in [5] and in [6] was more than 300 µM each time. Besides, the TGI in test [7] and in [8] was more than 300 µM throughout.

As to `CCOC(=O)C(Cc1cn(C(C)=O)c2ccccc12)P(=O)(OCC)OCC` (centres undefined), the TGI in test [1], in [9], in test [2], in test [3], in test [10] and in test [5] was more than 100 µM each time. The TGI in test [7] and in [8] was more than 100 µM in each case.

Turning to `O=C(Nc1ccc(-n2cc(-c3ccncc3)c(-c3ccc(O)c(Cl)c3)n2)cc1)Nc1ccc(Cl)c(C(F)(F)F)c1`, the GI50 in test [1] is 4.65 µM; in test [9], 3.96 µM; in [2], 3.15 µM; in test [3], 4.11 µM; in test [10], 2.71 µM; in test [4], 3.21 µM. Besides, the GI50 in test [5] was 2.53 µM; in test [6], 4.36 µM; in test [7] it was 3.6 µM; in test [8], 10.2 µM. Moreover, the TGI in [1] was 20.1 µM; in test [9], 21.6 µM; in test [2] it was 10.8 µM; in test [3], 21.3 µM; in [10], 9.78 µM; in test [4], 25.4 µM. Further, the TGI in test [5] was 10.1 µM; in [6], 26.7 µM; in [7] it was 17.4 µM; in [8], 25.2 µM.

Consider `O=C(O)CCc1nc2ccccc2[nH]1`, for which the TGI in test [1], in test [9], in test [2], in test [3], in test [10] and in [4] was more than 100 µM in each case. In addition, the TGI in test [5], in test [6], in [7] and in [8] was more than 100 µM each time.

As for `COc1ccc(OC)c(C2CCc3c(cnc4nc(N)nc(N)c34)C2)c1` (centres undefined), the TGI in test [1] was found to be 44.6 µM; in test [9], 20.4 µM; in test [2] it was 14.2 µM; in [3], 21.6 µM; in test [10] it was 28.7 µM; in [4] it was 24.2 µM. The TGI in test [5] came out at 18.7 µM; in test [6], 18.9 µM; in test [7], 15 µM; in test [8] it was 16.2 µM.

On to `Cn1ccc(C(=O)NCCN(CCNC(=O)c2ccn(C)c(=O)c2O)CCNC(=O)c2ccn(C)c(=O)c2O)c(O)c1=O`, for which the TGI in test [1], in [9], in test [3], in test [10], in [5] and in test [6] was more than 100 µM in each case. Moreover, the TGI in test [7] and in test [8] was more than 100 µM each time.

Turning to `CC(=O)O[C@@H]1C(=O)N(c2ccccc2)[C@@H]1c1cc2ccccc2c2ccccc12`, the TGI in test [1] is 61.2 µM; in test [9], 52.9 µM; in [2], 91 µM; in test [3], more than 100 µM; in [10], more than 100 µM; in test [4], more than 100 µM. For the same molecule, the TGI in test [5], in test [6], in [7] and in test [8] was more than 100 µM in each case.

For the molecule `COc1ccc(C(O)(c2ccccc2)c2nccc3ccccc23)cc1` (centres undefined), the TGI was more than 100 µM in test [9]; more than 100 µM in test [2]; more than 100 µM in test [3]; more than 100 µM in test [10]; 36.9 µM in test [4]; more than 100 µM in [5]. Also, the TGI in [6], in test [7] and in test [8] was more than 100 µM throughout.

As for `CC(C)C(=O)CC(c1ccc(Cl)cc1)N1N=C(C(C)C)CC1c1ccc(Cl)cc1` (centres undefined), the TGI in test [1] was more than 100 µM; in test [9], 28.2 µM; in test [2] it was more than 100 µM; in test [3] it was more than 65.8 µM; in test [10] it was more than 100 µM; in test [4], more than 100 µM. For the same molecule, the TGI in test [5], in test [6], in [7] and in [8] was more than 100 µM each time. The GI50 in test [5] is 53.3 µM; in test [6] it was more than 100 µM.

As for `C/C(=N\NC(=S)N(C)C)c1nc2ncccc2[nH]1`, the TGI in test [9], in test [2], in test [3], in test [10], in test [4] and in test [5] was more than 100 µM in each case. The TGI in [6], in test [7] and in [8] was more than 100 µM in each case.

Regarding `OCCCNc1ncnc2[nH]ncc12`, the TGI in [1], in test [2], in [3], in [10], in [4] and in [5] was more than 100 µM each time. Besides, the TGI in test [6], in test [7] and in [8] was more than 100 µM each time.

In the case of `C/C(=N\NC(=S)NCCCCNC(=S)N/N=C(\C)c1ccccn1)c1ccccc1`, the TGI was more than 100 µM in [1]; 2.17 µM in [9]; 81.5 µM in [2]; 5.63 µM in [3]; 40.6 µM in test [10]; more than 100 µM in test [4]. In addition, the TGI in [5] was 15.6 µM; in test [6] it was more than 36.5 µM; in [7] it was more than 58 µM; in test [8] it was more than 100 µM.

Turning to `COc1cc(/C=N\c2nc(-c3ccc(NS(=O)(=O)c4ccc(Cl)c(OC)c4)cc3)cs2)ccc1O`, the TGI in test [9], in test [2], in [3], in [4], in test [6] and in [7] was more than 100 µM throughout. The TGI in [8] was more than 100 µM.

With `COc1ccc(-c2cc(-c3ccc(O)cc3O)c(C#N)c(=O)[nH]2)cc1`, the TGI in test [9] was 53.4 µM; in [2] it was 38.7 µM; in [3], 85.2 µM; in test [10] it was more than 100 µM; in [4], 41.6 µM; in test [5], 41 µM. Further, the TGI turned out to be 73.5 µM in test [6], 62 µM in test [7] and 34.6 µM in test [8].

In the case of `CCOC(=O)CCSc1nc2ccc(I)cc2c(=O)n1Cc1ccccc1`, the TGI is more than 71.2 µM in [1]; 29.5 µM in test [9]; more than 74.2 µM in test [2]; more than 100 µM in test [3]; more than 88.2 µM in [10]; 82.4 µM in test [4]. The TGI was more than 100 µM in test [5], more than 91.2 µM in test [6], more than 100 µM in test [7] and more than 100 µM in [8].

On to `CCCn1cc2c(SC)nc(SC)nc2n1`, for which the TGI in [1], in test [9], in [2], in test [3], in [10] and in test [4] was more than 100 µM in each case. Moreover, the TGI in test [5], in test [6], in [7] and in test [8] was more than 100 µM each time.

In the case of `O=C(O)c1cc(=O)c2c(OCC(O)COc3cccc4oc(C(=O)O)cc(=O)c34)cccc2o1`, the TGI in [1], in test [9], in test [2], in test [3], in test [10] and in test [4] was more than 100 µM throughout. Also, the TGI in test [5], in [6], in test [7] and in test [8] was more than 100 µM each time.

As for `c1ccc(C(NC2=NCCO2)c2ccccc2)cc1`, the TGI in test [1], in test [9], in test [2], in test [3], in test [10] and in test [4] was more than 10 µM each time. In addition, the TGI in [5], in [6], in test [7] and in test [8] was more than 10 µM throughout.
